Columns and labels:
Notch1 = test: CBF1 binding site luciferase reporter assay; assay type: cell-based, human; conditions: GI carcinoid cells, VPA 48 hours
Protocol: Luciferase Reporter Assays GI carcinoid tumor cells were transiently transfected with luciferase constructs as previously described (Kunnimalaiyaan, M. et al., Conservation of the Notch1 signaling pathway in gastrointestinal carcinoid cells A J Physiol Gastrointest Liver Physiol 2005; 289:G636-642). Wild-type (4xwtCBF1Luc; 2 μg) or mutant (4xmutCBF1Luc; 2 μg) CBF1-luciferase reporter plasmids were co-transfected with CMV-β-gal (0.5 μg) (Hsieh J J et al., Truncated Mammalian Notch1 Activates CBF1/RBPJk-Repressed Genes by a Mechanism Resembling That of Epstein-Barr Virus EBNA2. Mol Cell Biol 1996; 16:952-959). In experiments with the γ-secretase inhibitor, N-[N-(3,5-difluorophenacetyl)-L-alanyl]-S-phenylglycine t-butyl ester (DAPT; EMD Biosciences, Darmstadt, Germany), to inhibit Notch1 cleavage and activation, cells were pretreated for 45 minutes with DAPT (50 μM) then treated with 4 mM VPA. […] Luciferase levels were measured using a Monolight 2010 Luminometer (Analytical Luminescence Laboratory, San Diego, Calif.). […]

neuroblastoma (NB) cells = conditions: cited from earlier work
BON GI carcinoid cells = test: Flow cytometry cell cycle analysis; assay type: cell-based, human; conditions: VPA
Protocol: Flow Cytometry GI carcinoid cells treated with or without VPA were labeled for 1 hour with 10 μM bromodeoxyuridine (Sigma-Aldrich) and counter-stained with 50 μg/ml propidium iodide and analyzed by two-dimensional flow cytometry (FACSCalibur flow cytometer; BD Biosciences) to detect both fluorescein and propidium iodide as previously described (Hirai, H. et al., Involvement of cell cycle progression in survival signaling through CD40 in the B-lymphocyte line WEHI-231. Cell Death Differ 2004; 11:261-269). Results were analyzed with FlowJo software (Tree Star, Ashland, Oreg.).

[1] = tested on: H727 human lung carcinoid cancer cells; test: Western blot analysis of pulmonary carcinoid cells; assay type: cell-based
[2] = tested on: H727 human lung carcinoid cancer cells; test: MTT cell proliferation assay, pulmonary carcinoid cells; assay type: cell-based; conditions: VPA 0 to 4 mM, up to 6 days
Description: (§1) Cell Culture BON human GI carcinoid cancer cells, kindly provided by Drs. B. Mark Evers and Courtney M. Townsend, Jr. (University of Texas Medical Branch, Galveston, Tex., USA), and H727 human lung carcinoid cancer cells (American Type Tissue Collection, Manassas, Va., USA) were maintained as previously described (Sippel, R S et al., Raf-1 Activation Suppresses neuroendocrine marker and hormone levels in human gastrointestinal carcinoid cells. Am J Physiol Gastrointest Liver Physiol. 2003 August; 285(2):G245-54, Van Gompel J J et al., ZM336372, A Raf-1 Activator, Suppresses Growth and Neuroendocrine Hormone Levels in Carcinoid Tumor Cells. Mol Cancer Ther. 2005 June; 4(6):910-7)
Cell Proliferation Assay Carcinoid cancer cell proliferation was measured by the MTT (thiazolyl blue tetrazolium bromide; Sigma-Aldrich, St. Louis, Mo., USA) rapid calorimetric assay as previously described (Van Gompel J J et al., ZM336372, A Raf-1 Activator, Suppresses Growth and Neuroendocrine Hormone Levels in Carcinoid Tumor Cells. Mol Cancer Ther. 2005 June; 4(6):910-7). Briefly, cells were seeded in quadruplicate on 24-well plates and incubated for 24 hours to allow cell attachment. The cells were then treated with SBHA (Sigma-Aldrich) in concentrations of 0 to 50 μM and incubated for up to 6 days. The MTT assay was performed by replacing the standard medium with 250 μL of serum-free medium containing MTT (0.5 mg/mL) and incubated at 37° C. for 3 hours. […] The plates were then measured at 540 nm using a spectrophotometer (μQuant; Bio-Tek Instruments, Winooski, Vt., USA). […]
(§2) Cell Proliferation Assay Carcinoid tumor cell proliferation was measured by the MTT (methylthiazolyldiphenyl-tetrazolium bromide; Sigma-Aldrich, St. Louis, Mo.) rapid colorimetric assay as previously described (Van Gompel J J et al., ZM336372, A Raf-1 Activator, Suppresses Growth and Neuroendocrine Hormone Levels in Carcinoid Tumor Cells. Mol Cancer Ther 2005; 4:910-917). […] The plates were then measured at 540 nm using a spectrophotometer (μQuant; Bio-Tek Instruments, Winooski, Vt.).

ASCL1 promoter = ASCL1 promoter luciferase reporter assay; assay type: cell-based, human; conditions: GI carcinoid cells, VPA 48 hours
[3] = tested on: BON human GI carcinoid cancer cells; test: MTT cell proliferation assay, GI carcinoid cells; assay type: cell-based
Description: as §1
Cell Proliferation Assay Carcinoid cancer cell proliferation was measured by the MTT (thiazolyl blue tetrazolium bromide; Sigma-Aldrich, St. Louis, Mo., USA) rapid calorimetric assay as previously described (Van Gompel J J et al., ZM336372, A Raf-1 Activator, Suppresses Growth and Neuroendocrine Hormone Levels in Carcinoid Tumor Cells. Mol Cancer Ther. 2005 June; 4(6):910-7). Briefly, cells were seeded in quadruplicate on 24-well plates and incubated for 24 hours to allow cell attachment. The cells were then treated with SBHA (Sigma-Aldrich) in concentrations of 0 to 50 μM and incubated for up to 6 days. The MTT assay was performed by replacing the standard medium with 250 μL of serum-free medium containing MTT (0.5 mg/mL) and incubated at 37° C. for 3 hours. After incubation, 750 μL of dimethyl sulfoxide (Sigma-Aldrich) was added to each well and mixed thoroughly. The plates were then measured at 540 nm using a spectrophotometer (μQuant; Bio-Tek Instruments, Winooski, Vt., USA).
Cell Culture BON human gastrointestinal (GI) carcinoid tumor cells, kindly provided by Drs. B. Mark Evers and Courtney M. Townsend, Jr. […]
as §2

[4] = human patients treated for epilepsy; cited from earlier work

SMILES: CCCC(CCC)C(=O)O [VPA, 2-propylpentanoic acid]
- increase in CBF1 luciferase activity (Notch1): 5 fold
- cell death (neuroblastoma (NB) cells): increased cell death
- levels of intracellular Notch-1 and Hes-1 (neuroblastoma (NB) cells): increased levels
- cells in the S phase (BON GI carcinoid cells): decrease
- percentage of cells in the G1 phase (BON GI carcinoid cells): dose-dependent increase
- ASCL1 protein ([1]; VPA): dose-dependent decrease
- full-length Notch1 and NICD ([1]; VPA 0-4 mM, 2 days): increase
- ASCL1 protein ([1]; VPA 4 mM, 2 days): undetectable levels
- protein levels of CgA ([1]; VPA, two days): decreased
- cell growth [2]: Statistically significant growth inhibition
- decrease in ASCL1 promoter luciferase activity (ASCL1 promoter): ~4 fold
- inhibition at 1000 µM ([3]; Homo sapiens, 144 h, 1 mM, 6 days of treatment, read-out: growth inhibition relative to untreated cells): 50%
- cell growth ([3]; VPA 0 to 4 mM, up to 6 days): profound dose-dependent inhibition of growth
- therapeutic range [4]: 50 to 125 µg/mL

From patent US8338482B2, “Modulating notch1 signaling pathway for treating neuroendocrine tumors” (Wisconsin Alumni Research Foundation, priority 2007, dated 2012)
